# Experimental data: US20230348456A1, “QUINAZOLINONES, PHARMACEUTICAL COMPOSITIONS CONTAINING THE SAME, AND METHODS OF USING THE SAME” (Repare Therapeutics Inc., priority 2022, published 2023)
# Molecular target: recombinant human Myt1 (Homo sapiens (Human), UniProt Q99640)
# Experiment: Myt1 enzymatic assay (ADP-Glo kinase assay)
# Type: biochemical
# Conditions: recombinant human Myt1 18 nM, ATP 10 μM
# Experimental: Detection of Myt1 kinase activity utilized a recombinant human Myt1 kinase assay measuring the hydrolysis of ATP using a commercially available ADP-Glo Assay (ADP-Glo™ Kinase Assay from Promega, 10 000 assays, #V9102). Briefly, 5 μL recombinant human Myt1 (full length PKMYT1 recombinant human protein expressed in insect cells from Thermo Fisher #A33387; ˜80% purity) was prepared in reaction buffer (70 mM HEPES, 3 mM MgCl2, 3 mM MnCl2, 50 μg/ml PEG 20000, 3 μM Na-orthovanadate, 1.2 mM DTT) and added to 384 well white polystyrene, flat bottom well, non-treated, microplate (Corning #3572). After this, 5 μL of compounds (diluted in reaction buffer to 0.5% DMSO) was added to the microplate and the plate was spun briefly and incubated at 22° C. for 15 minutes. Ultra-Pure Adenosine Triphosphate (ATP) solution (ADP-Glo kit from Promega) was diluted in reaction buffer and 5 μL was added to the microplate, spun down briefly and incubated for 60 minutes at 30° C. The final Myt1 enzyme concentration was 18 nM and the final ATP concentration was 10 μM. After the 60-minute incubation, 15 μL of ADP-Glo reagent was added and the plate was spun briefly and sealed and incubated in the dark for 40 minutes at 22° C. Following this, 30 μL of kinase detection reagent was added per well and the plate was spun briefly, sealed and incubated for 45-60 minutes at 22° C. in the dark. Luminescence was read using the Envision (250 ms integration). The IC50 and the % max inhibition were calculated for each inhibitor compound tested.
# recombinant human Myt1, sequence (Q99640 whole entry): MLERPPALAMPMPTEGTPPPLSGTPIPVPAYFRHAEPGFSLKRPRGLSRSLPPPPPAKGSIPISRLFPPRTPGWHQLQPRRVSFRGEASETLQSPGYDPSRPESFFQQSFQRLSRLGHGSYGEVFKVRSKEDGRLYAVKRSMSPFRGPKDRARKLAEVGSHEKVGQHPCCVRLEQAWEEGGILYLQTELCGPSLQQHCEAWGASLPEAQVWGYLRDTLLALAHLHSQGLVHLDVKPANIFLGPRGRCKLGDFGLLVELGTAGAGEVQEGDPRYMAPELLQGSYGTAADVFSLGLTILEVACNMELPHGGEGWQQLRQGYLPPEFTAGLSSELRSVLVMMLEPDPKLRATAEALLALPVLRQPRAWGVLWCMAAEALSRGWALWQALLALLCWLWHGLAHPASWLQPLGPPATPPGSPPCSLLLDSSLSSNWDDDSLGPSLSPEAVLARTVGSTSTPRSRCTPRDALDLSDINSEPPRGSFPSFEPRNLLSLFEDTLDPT
row,IC50 [nM],Compound
1,3,Nc1c(-c2cccc3[nH]ncc23)cc(-c2cnn(C3CCOCC3)c2)c2nc(-c3ccncc3)[nH]c(=O)c12 [Compound 67]
2,864,Cc1ccc(O)cc1-c1cc(Br)c2c(c1N)C(=O)NC2 [Compound 69]
3,4,Nc1c(-c2cccc3[nH]ncc23)cc(-c2cccc(OC[C@H]3CCCO3)n2)c2nc(-c3ccncc3)[nH]c(=O)c12 [Compound 70]
4,21,Nc1c(-c2cccc3[nH]ncc23)cc(C2=CCC(F)(F)CC2)c2nc(-c3ccncc3)[nH]c(=O)c12 [Compound 71]
5,3,Nc1c(-c2cccc3[nH]ncc23)cc(-c2cnn(C3CC3)c2)c2nc(-c3ccncc3)[nH]c(=O)c12 [Compound 72]
6,6,Nc1c(-c2cccc3[nH]ncc23)cc(-n2cc(F)cn2)c2nc(-c3cccnc3)[nH]c(=O)c12 [Compound 75]
7,8,Nc1c(-c2cccc3[nH]ncc23)cc(-n2ccc(C3CCOCC3)n2)c2nc(-c3cccnc3)[nH]c(=O)c12 [Compound 76]
8,6,Nc1c(-c2cccc3[nH]ncc23)cc(-c2cccc(=O)[nH]2)c2nc(-c3cccnc3)[nH]c(=O)c12 [Compound 80]
9,35,Nc1c(-c2cccc3[nH]ncc23)cc(-c2ccccn2)c2nc[nH]c(=O)c12 [Compound 82]
10,5,Nc1c(-c2cccc3[nH]ncc23)cc(Br)c2nc(-c3ccncc3)[nH]c(=O)c12 [Compound 83]
11,16000,Cc1ccc(O)cc1-c1ccc2c(c1N)C(=O)NC2 [Compound 85]
12,100,Nc1c(-c2cccc3[nH]ncc23)cc(-n2cc(C(F)(F)F)cn2)c2nc(-c3ccncc3)[nH]c(=O)c12 [Compound 87]
13,5,Cc1ccc2[nH]ncc2c1-c1cc(-c2cccc(OCCN3CCOCC3)n2)c2nc[nH]c(=O)c2c1N [Compound 88]
14,13,Cc1ccc2[nH]ncc2c1-c1cc(-c2cccc(OCCN3CCCC3)n2)c2nc[nH]c(=O)c2c1N [Compound 89]
15,11,Cc1ccc2[nH]ncc2c1-c1cc(-c2cccc(OCc3nccn3C)n2)c2nc[nH]c(=O)c2c1N [Compound 90]
16,22,Cc1ccc(O)cc1-c1cc(-c2nccs2)c2c(c1N)C(=O)NC2 [Compound 93]
17,10,Nc1c(-c2cccc3[nH]ncc23)cc(-c2cccc(OCc3ncco3)c2)c2nc[nH]c(=O)c12 [Compound 95]
18,67,Nc1c(-c2cccc3[nH]ncc23)ccc2nc(-c3ccncc3)[nH]c(=O)c12 [Compound 96]
19,17,Cc1ccc2[nH]ncc2c1-c1cc(-c2cccc(F)n2)c2nc[nH]c(=O)c2c1N [Compound 99]
20,24,Nc1c(-c2cccc3[nH]ncc23)cc(Br)c2nc[nH]c(=O)c12 [Compound 106]
21,73,Cc1ccc(O)cc1-c1cc(-c2ncccn2)c2c(c1N)C(=O)NC2 [Compound 108]
22,122,Nc1c(-c2cccc3[nH]ncc23)ccc2nc[nH]c(=O)c12 [Compound 109]
23,7,Cc1ccc2[nH]ncc2c1-c1cc(-c2cccc(OC3CCOCC3)n2)c2nc[nH]c(=O)c2c1N [Compound 110]
24,4,Nc1c(-c2cccc3[nH]ncc23)cc(-c2nccs2)c2nc(-c3cccnc3)[nH]c(=O)c12 [Compound 111]
25,28,Nc1c(-c2cccc3[nH]ncc23)cc(-c2ncc(Cl)s2)c2nc[nH]c(=O)c12 [Compound 114]
26,15,Nc1c(-c2cccc3[nH]ncc23)cc(-c2ccc(F)s2)c2nc[nH]c(=O)c12 [Compound 117]
27,11,N#Cc1ccc(-c2cc(-c3cccc4[nH]ncc34)c(N)c3c(=O)[nH]cnc23)s1 [Compound 118]
28,189,Nc1c(-c2cccc3[nH]ncc23)cc(-c2ncc(F)cn2)c2nc[nH]c(=O)c12 [Compound 120]
29,62,"Cc1ccc(-c2cc(-c3cccc4[nH]ncc34)c(N)c3c(=O)[nH]cnc23)s1 [Compound 121, 5-amino-6-(1H-indazol-4-yl)-8-(5-methylthiophen-2-yl)quinazolin-4(3H)-one]"

# Further lines, the compound ahead of its results:
row,Compound,IC50 [nM]
1,Nc1c(-c2cccc3[nH]ncc23)cc(-c2cnn(CC3CC3)c2)c2nc(-c3ccncc3)[nH]c(=O)c12 [Compound 68],6
2,Nc1c(-c2cccc3[nH]ncc23)cc(-c2cnn(C(F)F)c2)c2nc(-c3ccncc3)[nH]c(=O)c12 [Compound 73],4
3,"Nc1c(-c2cccc3[nH]ncc23)cc(-n2ccc(C3CC3)n2)c2nc(-c3cccnc3)[nH]c(=O)c12 [Compound 74, 5-amino-8-(3-cyclopropylpyrazol-1-yl)-6-(1H-indazol-4-yl)-2-(3-pyridyl)-3H-quinazolin-4-one]",11
4,Nc1c(-c2cccc3[nH]ncc23)cc(-n2cccn2)c2nc(-c3cccnc3)[nH]c(=O)c12 [Compound 79],3
5,Nc1c(-c2cccc3[nH]ncc23)cc(-c2cnn(C3CCOCC3)c2)c2nc(-c3cccnc3)[nH]c(=O)c12 [Compound 81],4
6,Nc1c(-c2cccc3[nH]ncc23)cc(-n2cc3c(n2)CCC3)c2nc(-c3ccncc3)[nH]c(=O)c12 [Compound 86],18
7,Cc1ccc2[nH]ncc2c1-c1cc(-c2cccc(OCc3ncco3)n2)c2nc[nH]c(=O)c2c1N [Compound 91],5
8,Nc1c(-c2cccc3[nH]ncc23)cc(C2CC2)c2nc(-c3cccnc3)[nH]c(=O)c12 [Compound 92],7
9,Nc1c(-c2cccc3[nH]ncc23)cc(-c2cccc(OCC(=O)O)c2)c2nc[nH]c(=O)c12 [Compound 94],46
10,Cc1ccc2[nH]ncc2c1-c1cc(-c2cccc(OC[C@H]3COCCO3)n2)c2nc[nH]c(=O)c2c1N [Compound 97],10
11,Cc1ccc2[nH]ncc2c1-c1cc(-c2nccs2)c2nc[nH]c(=O)c2c1N [Compound 98],5
12,Nc1c(-c2cccc3[nH]ncc23)cc(-c2cnn(C3COC3)c2)c2nc(-c3cccnc3)[nH]c(=O)c12 [Compound 100],5
13,Cc1ccc2[nH]ncc2c1-c1cc(-c2cccc(OC[C@@H]3COCCO3)n2)c2nc[nH]c(=O)c2c1N [Compound 101],11
14,Cc1ccc2[nH]ncc2c1-c1cc(-c2cccc(OCc3ncccn3)n2)c2nc[nH]c(=O)c2c1N [Compound 102],10
15,COCCOc1ccc(-c2nc3c(Br)cc(-c4cccc5[nH]ncc45)c(N)c3c(=O)[nH]2)cn1 [Compound 103],8
16,Cc1ccc(O)cc1-c1cc(C2=CCOCC2)c2c(c1N)C(=O)NC2 [Compound 105],641
17,N#Cc1csc(-c2cc(-c3cccc4[nH]ncc34)c(N)c3c(=O)[nH]cnc23)n1 [Compound 107],3
18,Nc1c(-c2cccc3[nH]ncc23)cc(-c2nccs2)c2nc(CCc3cccnc3)[nH]c(=O)c12 [Compound 112],34
19,Cc1ncccc1-c1nc2c(-c3nccs3)cc(-c3cccc4[nH]ncc34)c(N)c2c(=O)[nH]1 [Compound 113],94
20,Nc1c(-c2cccc3[nH]ncc23)cc(-c2ncc(C(F)(F)F)s2)c2nc[nH]c(=O)c12 [Compound 115],109
21,Nc1c(-c2cccc3[nH]ncc23)cc(-c2nc(Cl)cs2)c2nc[nH]c(=O)c12 [Compound 116],13
22,Nc1c(-c2cccc3[nH]ncc23)cc(-c2nc(C(F)(F)F)cs2)c2nc[nH]c(=O)c12 [Compound 119],55
23,Nc1c(-c2cccc3[nH]ncc23)cc(-c2ncccn2)c2nc[nH]c(=O)c12 [Compound 122],170
